From patent publication US20220000967A1, “SYNTHETIC PEPTIDES INDUCING IMMUNOGENIC CELL DEATH” (SORBONNE UNIVERSITE, priority 2018, published 2022)
Where two headings read alike, the source gives them in different places.

Columns and labels:
L5178Y-R [1] = assay: Calreticulin exposure (flow cytometry, confocal microscopy); type: cell-based, murine; conditions: CC50 of PKHB1, 2h
Experimental: 1×10^6 cells/mL were plated, treated with PKHB1, and incubated for 2h. Cells were harvested, washed, and stained with Calreticulin-PE (FMC-75, Enzo Life Science, Farmingdale, N.Y., USA) antibody (1:1000) in FACS buffer. After 1h of incubation in darkness at room temperature, cells were washed and resuspended in 100Lp of FACS buffer to be assessed by flow cytometry. For confocal microscopy (OlympusX70), poly-Llysine was added 24h to sterile coverslips and 1×10^6 cells/mL were seeded. PKHB1 was added and incubated for 2h. Then, the cells were stained with Calreticulin-PE antibody (1:500) and Hoechst, incubated 1h, and assessed by confocal microscopy.

[2] = Cell death by Annexin-V-APC/PI flow cytometry; type: cell-based, murine; conditions: L5178Y-R, 2h; read-out: cytotoxic concentration that induces around 50% of cell death (CC50)
Experimental: (§1) CEM, MOLT-4 (T-acute lymphoblastic leukemia, T-ALL), and L5178Y-R (murine lymphoblastic T cell line) were obtained from ATCC. Human and murine PBMCs, human CD4+ and CD8+ T cells, and primary lymphoid organ's cells were obtained from healthy individuals. Cells were maintained in RPMI-1640 medium supplemented with 10% of fetal bovine serum, 2 mM L-glutamine, 100 U/mL penicillin-streptomycin (GIBCO by Life Technologies, Grand Island, N.Y., USA), and incubated at 37° C. in a controlled humidified atmosphere with 5% CO2. Cell count was performed using trypan blue (0.4% Sigma-Aldrich), a Neubauer chamber and an optic microscope (Zeiss Primo Star) as proposed by the ATCC's standard protocols. Flow Cytometry. Cell Death Induction, and Inhibition Annexin-V-allophycocyanin (Ann-V-APC 0.1 μg/ml; BD Pharingen, San Jose Calif., USA), propidium iodide (PI, 0.5 μg/ml Sigma-Aldrich), and tetramethylrhodamine ethyl ester (TMRE, 20 nM, Sigma-Aldrich) were used for phosphatidylserine exposure, cell viability, and mitochondrial transmembrane potential (UΨm) quantification, respectively, in a BD AccuryC6 flow cytometer (BD Biosciences) (total population 10,000 cells). Data were analyzed using FlowJo software. 1×10^6 cells/mL were treated for 2h with PKHB1 (as indicated). For the inhibition assays, calcium chelator, BAPTA (5 mM, CalbioChem, Merck, Billerica Mass., USA); or the pancaspase inhibitor Q-VD-OPh (QVD, 10 μM, BioVision, Milpitas Calif., USA); were added 30 min before PKHB1.

L5178Y-R [3] = assay: Cell death by Annexin-V-APC/PI flow cytometry; type: cell-based, murine; conditions: 2h; for cell death percentage: PKHB1 200 μM
Experimental: as §1

MOLT-4 [4] = assay: ATP release assay (luciferase bioluminescence); type: cell-based, human; conditions: CC50 and CC100, 2h
Experimental: (§2) 1×10^6 cells/mL were treated with PKHB1 (CC50 and CC100 for each cell lines) for 2h. Supernatants were used to assess extracellular ATP by a luciferase assay (ENLITEN kit, Promega, Madison Wis., USA) following the manufacturer's instructions. Bioluminescence was assessed in a microplate reader (Synergy HT, BioTek, Software Gen5, Winooski, Vt., USA) at 560 nm.

CEM [5] = assay: ATP release assay (luciferase bioluminescence); type: cell-based, human; conditions: CC50 and CC100, 2h
Experimental: as §2

[6] = Cell death by Annexin-V-APC/PI flow cytometry; type: cell-based, human; conditions: CEM, 2h; read-out: cytotoxic concentration that induces around 50% of cell death (CC50)
Experimental: as §1

CEM [7] = assay: Cell death by Annexin-V-APC/PI flow cytometry; type: cell-based, human; conditions: 2h; for cell death percentage: PKHB1 200 μM
Experimental: as §1

[8] = test system: murine PBMCs and primary cultures of bone marrow, spleen, thymus and lymph nodes; assay: Selectivity on non-cancerous murine cells (Ann/PI, MTT); type: cell-based; conditions: lymph nodes of healthy BALB/c mice
Experimental: (§3) Peripheral blood was collected from 10 healthy volunteers after obtaining written informed consent. This study was approved by the Institutional Ethics Committee at the Universidad Autonoma de Nuevo Leon, College of Biological Sciences. The animal study was approved by the Animal Ethical Committee (CEIBA), Number: 01/2015. All experiments were conducted according to Mexican regulation NOM-062-ZOO-1999. The blood from sacrificed mice was obtained by cardiac puncture, while human blood was collected by venipuncture. Peripheral blood mononuclear cells (PBMCs) isolation was performed by density gradient centrifugation using Ficoll-Hypaque-1119 (Sigma-Aldrich, St Louis, Mo., USA). 4×10^5 white blood cells were washed and seeded. CD4+/CD8+ characterization was done using primary antibodies (CD4; MT310 sc-19641 and CD8; 32-M4 sc-1177, Santa Cruz, Calif., USA).
Spleen, thymus, lymphatic node, and bone marrow cells were obtained from female BALB/c mice post-sacrifice. Spleen cells were obtained through perfusion, thymocytes and lymphatic node cells were obtained by maceration, and bone morrow cells (from one femur and tibia per mouse) were flushed with PBS. Cells washed and counted using trypan blue staining.
CEM, MOLT-4 (T-acute lymphoblastic leukemia, T-ALL), and L5178Y-R (murine lymphoblastic T cell line) were obtained from ATCC. […] Data were analyzed using FlowJo software. […]

MOLT-4 [9] = assay: Loss of mitochondrial transmembrane potential (TMRE); type: cell-based, human; conditions: PKHB1 CC50, 2h
Experimental: as §1, with “For the inhibition assays, calcium chelator, BAPTA (5 mM, CalbioChem, Merck, Billerica Mass., USA); or the pancaspase inhibitor Q-VD-OPh (QVD, 10 μM, BioVision, Milpitas Calif., USA); were added 30 min before PKHB1.” left out

CEM [10] = assay: as above; type: cell-based, human; conditions: PKHB1 CC50, 2h
Experimental: as §1, with “For the inhibition assays, calcium chelator, BAPTA (5 mM, CalbioChem, Merck, Billerica Mass., USA); or the pancaspase inhibitor Q-VD-OPh (QVD, 10 μM, BioVision, Milpitas Calif., USA); were added 30 min before PKHB1.” left out

[11] = test system: human PBMCs and CD4+ and CD8+ human T cells from healthy donors; assay: Selectivity on non-cancerous human cells (Annexin-V/PI); type: cell-based
Experimental: as §3, with “CD4+/CD8+ characterization was done using primary antibodies (CD4; MT310 sc-19641 and CD8; 32-M4 sc-1177, Santa Cruz, Calif., USA).” left out
CEM, MOLT-4 (T-acute lymphoblastic leukemia, T-ALL), and L5178Y-R (murine lymphoblastic T cell line) were obtained from ATCC. […] Cell Death Induction, and Inhibition Annexin-V-allophycocyanin (Ann-V-APC 0.1 μg/ml; BD Pharingen, San Jose Calif., USA), propidium iodide (PI, 0.5 μg/ml Sigma-Aldrich), and tetramethylrhodamine ethyl ester (TMRE, 20 nM, Sigma-Aldrich) were used for phosphatidylserine exposure, cell viability, and mitochondrial transmembrane potential (UΨm) quantification, respectively, in a BD AccuryC6 flow cytometer (BD Biosciences) (total population 10,000 cells). Data were analyzed using FlowJo software. […]

MOLT-4 [12] = assay: Western blot of HSP90, HSP70, CRT and HMGB1; type: cell-based, human; conditions: CC50 and CC100, 2h
Experimental: (§4) 1×10^6 cells/mL were seeded in a serum-free culture medium and treated with PKHB1 (CC50 and CC100 for each cell line) or left alone (Control) for 2h. Supernatants was recovered and lysed with lysis buffer (20 mM Tris pH 6.8, 2 mM EDTA, 300 mM NaCl and SDS 2%). Protein concentration was measured using the DC Protein Assay kit (Bio-Rad, Hercules, Calif., USA) and 50 μg of protein were loaded into SDS-PAGE gels. After blotting, nitrocellulose filters were probed with primary antibodies (1:1000) against HMGB1 (HAP46.5: sc-56698), HSP70 (C92F3A-5: sc-66048), HSP90 (F-8: SC-13119) and Calreticulin (F-4: sc373863). Anti-mouse or anti-rabbit-HRP served as secondary antibodies (Santa Cruz Biotechnology, CA, USA). Visualization was performed with ECL substrate system (Thermo Scientific, Waltham, Mass., USA).

CEM [13] = assay: Western blot of HSP90, HSP70, CRT and HMGB1; type: cell-based, human; conditions: CC50 and CC100, 2h
Experimental: as §4

[14] = pre-incubated 30 min with Ca2+ chelator BAPTA
[15] = pre-incubated 30 min with pan-caspase inhibitor Q-VD-OPH

Q: Which results are given for CSCC[C@H](NC(=O)[C@@H](NC(=O)[C@@H](NC(=O)[C@H](Cc1ccc(O)cc1)NC(=O)[C@H](Cc1ccccc1)NC(=O)[C@H](CCCNC(=N)N)NC(=O)[C@H](N)CCCCN)C(C)C)C(C)C)C(=O)N[C@@H](Cc1c[nH]c2ccccc12)C(=O)N[C@@H](CCCCN)C(=O)N[C@H](CCCCN)C(=O)O [PKHB1, (D)K-R-F-Y-V-V-M-W-K-(D)K]?
A: CRT exposure (L5178Y-R [1]): significant increase; CC50 [2]: 200 µM; cell death (Ann-V-APC/PI positive cells) (L5178Y-R [3]; 100, 200 and 300 μM): concentration-dependent; CC100 (L5178Y-R [3]): 300 µM; cell death percentage (L5178Y-R [3]; left alone): 52%±5; cell death percentage (L5178Y-R [3]; [14]): 21%±8; cell death percentage (L5178Y-R [3]; [15]): 49%±3; presence of ATP in supernatants (MOLT-4 [4]): significantly augmented; presence of ATP in supernatants (CEM [5]): significantly augmented; CC50 [6]: 200 µM; cell death (Ann-V-APC/PI positive cells) (CEM [7]; 100, 200 and 300 μM): concentration-dependent; cell death percentage (CEM [7]; left alone): 51%±4; cell death percentage (CEM [7]; [14]): 18%±11; cell death percentage (CEM [7]; [15]): 48%±5; cell viability of non-cancerous cells [8]: did not significantly affected cell viability; loss of mitochondrial membrane potential (MOLT-4 [9]): 61%±4; loss of mitochondrial membrane potential (CEM [10]): 49%±5; cell viability of non-cancerous cells [11]: did not significantly affected cell viability; expression of HSP90, HSP70, CRT and HMGB1 in cellular lysates (MOLT-4 [12]): decrease; expression of HSP90, HSP70, CRT and HMGB1 in supernatants (MOLT-4 [12]; vs untreated cells): increased; expression of HSP90, HSP70, CRT and HMGB1 in cellular lysates (CEM [13]): decrease; expression of HSP90, HSP70, CRT and HMGB1 in supernatants (CEM [13]; vs untreated cells): increased
